From US12343334B2, “Compositions and methods for treating severe constipation” (Serleva, Inc., priority 2018, dated 2025)

Test system: Male C57BL mice with loperamide-induced constipation
Test: Mouse model of loperamide-induced constipation
Assay type: in vivo
Conditions: Product 1 30 mg/kg oral gavage, 30 min after loperamide 10 mg/kg, final study day, compared to Loperamide/Vehicle
Experimental: Mouse Model of Loperamide-Induced Constipation
Male C57BL mice (6 to 8 weeks, 25-30 grams) were placed on high-fat diet (45% fat) and allowed to acclimate (singly housed on a 12 hr light/dark cycle) for 6 days. Loperamide was administered by oral gavage at 10 mg/kg (10% DMSO/90% of 20% SBE-β-CD in saline) for 3 consecutive days prior to study initiation.
Daily loperamide dosing was continued throughout the entire study. On the 4, day of loperamide administration, Product 1 (30 mg/kg in 10% DMSO/90% of 20% SBE-β-CD in saline) was administered 30 minutes later by oral gavage. Sequential treatment of loperamide and Product 1 (30 minutes post-loperamide dose) was continued for 2 additional days. On the final day of the study, a fourth group of animals received a single subcutaneous administration of naloxone (1 mg/kg) as a positive control.
On the final study day, the number of fecal pellets and pellet weights for each animal were recorded hourly for the 6 hours following dosing. Fecal pellet output was then recorded every other hour for the period of 6-12 hours post-dosing. Additionally, total fecal pellet count for the period of 12 to 24 hours was measured. Fecal pellets were dried for 24 hours and dry weight recorded.
Prism software (GraphPad Prism, San Diego, CA) was employed for graphs and curve fitting. Data was analyzed using a two-way ANOVA with post-hoc LSD test.

O=C(O)CC1CCC(c2ccc(-c3ccc(Nc4ccc(C(F)(F)F)nc4)cn3)cc2)CC1 (stereo not drawn) [Product 1]
significant increase: wet weights of fecal pellets (FPWW) (1-4 hours after administration, FIG. 2) | dry weights of fecal pellets (FPDW) (1-4 hours after administration, FIG. 3) | fecal pellet output (FPCO) (first 1-4 hours after administration, FIG. 1)
